A word on the MIC: it is the lowest concentration found to suppress growth. In general, IC50 refers to the midpoint of a concentration-inhibition curve.

These results are taken from patent publication US8809333B2, “Imidazole, pyrazole, and triazole derivatives useful as antibacterial agents” (Pfizer Inc., priority 2011, dated 2014).

Converted amounts (≈) assume the structure as drawn. Where two headings read alike, the source gives them in different places.

For assay [1], the system named is Escherichia coli EC-1: VOGEL, mouse virulent. Nature of the assay: MIC determination (CLSI), EC-1. In kind it is cell-based. The following applies: Escherichia coli, read-out: EC-1 (MIC). A digest of the protocol:
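Broth dilution MIC per CLSI M7-A8, with 2-fold compound dilutions incubated overnight with a standard inoculum. MIC is the lowest concentration visibly inhibiting growth versus drug-free control; tested in duplicate, reporting the lower value when within 2-fold, with QC organisms and reference compounds required in range.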

Assay [2] has as its system Pseudomonas aeruginosa UI-18: Wild-type (PA-7). Nature of the assay: MIC determination (CLSI), PA-7. In kind it is cell-based. Conditions: read-out: PA-7 (MIC). A digest of the protocol:
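Broth dilution MIC per CLSI M7-A8, using 2-fold compound dilutions incubated overnight; MIC is the lowest concentration with no visible growth versus the drug-free control. Run in duplicate, lower value reported when within 2-fold. Control organisms and reference compounds were included for QC.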

Assay [3] deals with T1, Pseudomonas aeruginosa LpxC enzyme (Pseudomonas aeruginosa, UniProt P47205).
T1 construct: made in house; host or cells: E. coli
T1 sequence (P47205 1-303): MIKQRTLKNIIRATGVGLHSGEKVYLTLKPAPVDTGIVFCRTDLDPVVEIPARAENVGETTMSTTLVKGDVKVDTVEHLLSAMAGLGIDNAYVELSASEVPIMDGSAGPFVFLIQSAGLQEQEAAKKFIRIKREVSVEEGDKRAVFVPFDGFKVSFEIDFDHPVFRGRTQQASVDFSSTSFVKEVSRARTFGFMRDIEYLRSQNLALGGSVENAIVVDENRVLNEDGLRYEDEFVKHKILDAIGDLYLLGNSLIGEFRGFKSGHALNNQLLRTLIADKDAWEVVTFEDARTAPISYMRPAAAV
Description: IC50 assay, LpxC enzyme from P. aeruginosa (BioTrove RapidFire mass spectrometry). In kind it is biochemical. A digest of the protocol:
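P. aeruginosa LpxC reaction run 1 hour, stopped with 1 N HCl, and substrate-to-product conversion quantified by RapidFire mass spectrometry. IC50 calculated from percent conversion using a no-enzyme control.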

In assay [4] the test system is Klebsiella pneumoniae: Ciprofloxacin-resistant isolate, expresses ESBL, clinical isolate (KP-3700). Description: MIC determination (CLSI), KP-3700. It counts as cell-based. Conditions: overnight incubation, lower of duplicate values. A digest of the protocol:
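Broth dilution MIC per CLSI M7-A8 against the ciprofloxacin-resistant, ESBL-expressing clinical isolate, 2-fold concentration steps, overnight incubation, visual read of lowest growth-inhibiting concentration. Tested in duplicate; lower value reported when within 2-fold; control organisms and reference compounds required within range.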

The subject of assay [5] is Acinetobacter baumannii/haemolyticus: Multidrug-resistant clinical isolate (AB-3167). Description: MIC determination (CLSI), AB-3167. In kind it is cell-based. Conditions: read-out: AB-3167 (MIC). A digest of the protocol: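 Broth dilution MIC per CLSI M7-A8, 2-fold concentration steps, overnight incubation, visual read of lowest concentration inhibiting growth versus drug-free control. Tested in duplicate; lower value reported if within 2-fold, otherwise repeated; QC organisms and reference drugs required within range.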

Where [6] appears, read: Pseudomonas aeruginosa UI-18 wild-type, overnight incubation, lower of duplicate values.
Where [7] appears, read: P. aeruginosa LpxC enzyme 0.1 nM, 25° C., 1 hour, pH 8.0, read-out: PA: IC50.
Setting [8] is: Acinetobacter baumannii/haemolyticus multidrug-resistant clinical isolate, overnight incubation, lower of duplicate values.

As to `CC(CCn1cc(-c2ccc3c(c2)CCO3)cn1)(C(=O)NO)S(C)(=O)=O` (centres unmarked) [Example 58, 4-[4-(2,3-dihydro-1-benzofuran-5-yl)-1H-pyrazol-1-yl]-N-hydroxy-2-methyl-2-(methylsulfonyl)butanamide], the MIC in assay [1] is more than 64 µg/mL; in assay [2] (setting [6]), 4 µg/mL (≈ 10.5 µM); in assay [5] (setting [8]) it was more than 64 µg/mL. Moreover, in assay [3] (setting [7]), the IC50 was 1.17 nM. In addition, the “KP-3700 (MIC)” value in assay [4] is more than 64.0 µg/mL.

Regarding `C[C@@](CCn1cc(-c2ccc(Cl)cc2F)nn1)(C(=O)NO)S(C)(=O)=O` [Example 24, (2R)-4-[4-(4-chloro-2-fluorophenyl)-1H-1,2,3-triazol-1-yl]-N-hydroxy-2-methyl-2-(methylsulfonyl)butanamide], the MIC in assay [1] is 2 µg/mL (≈ 5.12 µM); in assay [2] (setting [6]) it was 1 µg/mL (≈ 2.56 µM); in assay [5] (setting [8]), more than 64 µg/mL. The molecule further gave an IC50 in assay [3] of 0.657 nM. In assay [4], the “KP-3700 (MIC)” value is 4 µg/mL.

For `COc1ccc(-c2cn(CC[C@](C)(C(=O)NO)S(C)(=O)=O)nn2)c(Cl)c1` [Example 16, (2R)-4-[4-(2-chloro-4-methoxyphenyl)-1H-1,2,3-triazol-1-yl]-N-hydroxy-2-methyl-2-(methylsulfonyl)butanamide], the MIC in assay [1] is 8 µg/mL (≈ 19.9 µM); in assay [2] (setting [6]) it was 8 µg/mL (≈ 19.9 µM); in assay [5] (setting [8]) it was more than 64 µg/mL. In addition, half-maximal inhibition in assay [3] (IC50) was put at 4.71 nM. Further, the “KP-3700 (MIC)” value in assay [4] was found to be 32 µg/mL.

Take `Cn1nccc1-c1ccc(-c2cnn(CCC(C)(C(=O)NO)S(C)(=O)=O)c2)cc1` (centres unmarked) [Example 82, N-hydroxy-2-methyl-4-{4-[4-(1-methyl-1H-pyrazol-5-yl)phenyl]-1H-pyrazol-1-yl}-2-(methylsulfonyl)butanamide]: the MIC in assay [1] is 8 µg/mL (≈ 19.2 µM); in assay [2] (setting [6]), 16 µg/mL (≈ 38.3 µM); in assay [5] (setting [8]), more than 64 µg/mL. Besides, the half-maximal inhibitory concentration (IC50) in assay [3] (setting [7]) was 3.29 nM. Also, the “KP-3700 (MIC)” value in assay [4] turned out to be 32 µg/mL.

Take `CC(CCn1cc(-c2ccc(C3(C#N)CC3)cc2)cn1)(C(=O)NO)S(C)(=O)=O` (centres unmarked) [Example 66, 4-{4-[4-(1-cyanocyclopropyl)phenyl]-1H-pyrazol-1-yl}-N-hydroxy-2-methyl-2-(methylsulfonyl)butanamide]: the figures for the MIC in assay [1], in assay [2] (setting [6]) and in assay [5] (setting [8]) were more than 64 µg/mL, 16 µg/mL (≈ 39.8 µM) and more than 64 µg/mL, respectively. For the same molecule, the IC50 in assay [3] (setting [7]) is 2.83 nM. In addition, the “KP-3700 (MIC)” value in assay [4] is more than 64.0 µg/mL.

Regarding `CC(CCn1cc(-c2ccc3c(c2)CCC3=O)cn1)(C(=O)NO)S(C)(=O)=O` (centres unmarked) [Example 62, N-hydroxy-2-methyl-2-(methylsulfonyl)-4-[4-(1-oxo-2,3-dihydro-1H-inden-5-yl)-1H-pyrazol-1-yl]butanamide], the minimum inhibitory concentration (MIC) is more than 64 µg/mL in assay [1], 16 µg/mL (≈ 40.9 µM) in assay [2] (setting [6]) and more than 64 µg/mL in assay [5] (setting [8]). In addition, the IC50 in assay [3] (setting [7]) was found to be 0.754 nM. The “KP-3700 (MIC)” value in assay [4] was more than 64.0 µg/mL.

As to `COc1ccc(-c2cnn(CCC(C)(C(=O)NO)S(C)(=O)=O)c2)cc1OC` (centres unmarked) [Example 65, 4-[4-(3,4-dimethoxyphenyl)-1H-pyrazol-1-yl]-N-hydroxy-2-methyl-2-(methylsulfonyl)butanamide], the MIC in assay [1], in assay [2] (setting [6]) and in assay [5] (setting [8]) was more than 64 µg/mL each time. The IC50 in assay [3] (setting [7]) is 93.2 nM. The “KP-3700 (MIC)” value in assay [4] was more than 64.0 µg/mL.

With `Cc1nc2ccc(-c3cnn(CCC(C)(C(=O)NO)S(C)(=O)=O)c3)cc2s1` (centres unmarked) [Example 79, N-hydroxy-2-methyl-4-[4-(2-methyl-1,3-benzothiazol-6-yl)-1H-pyrazol-1-yl]-2-(methylsulfonyl)butanamide], the figures for the MIC in assay [1], in assay [2] (setting [6]) and in assay [5] (setting [8]) were 64 µg/mL (≈ 157 µM), 16 µg/mL (≈ 39.2 µM) and more than 64 µg/mL, respectively. Further, the IC50 in assay [3] (setting [7]) turned out to be 6.22 nM. The “KP-3700 (MIC)” value in assay [4] is more than 64.0 µg/mL.

`CC(CCn1cc(-c2ccc3c(c2)C(=O)CC3)cn1)(C(=O)NO)S(C)(=O)=O` (centres unmarked) [Example 61, N-hydroxy-2-methyl-2-(methylsulfonyl)-4-[4-(3-oxo-2,3-dihydro-1H-inden-5-yl)-1H-pyrazol-1-yl]butanamide]: the MIC in assay [1], in assay [2] (setting [6]) and in assay [5] (setting [8]) was more than 64 µg/mL each time. For the same molecule, in assay [3] (setting [7]), the IC50 stood at 38.6 nM. Also, the “KP-3700 (MIC)” value in assay [4] is more than 64.0 µg/mL.

`CC(CCn1cc(-c2ccc3nc(N)sc3c2)cn1)(C(=O)NO)S(C)(=O)=O` (centres unmarked) [Example 80, 4-[4-(2-amino-1,3-benzothiazol-6-yl)-1H-pyrazol-1-yl]-N-hydroxy-2-methyl-2-(methylsulfonyl)butanamide]: the MIC in assay [1], in assay [2] (setting [6]) and in assay [5] (setting [8]) was more than 64 µg/mL throughout. Besides, in assay [3] (setting [7]), the IC50 turned out to be 75.8 nM. Moreover, the “KP-3700 (MIC)” value in assay [4] was more than 64.0 µg/mL.

On to `COc1ccc(-c2cnn(CCC(C)(C(=O)NO)S(C)(=O)=O)c2)cc1F` (centres unmarked) [Example 60, 4-[4-(3-fluoro-4-methoxyphenyl)-1H-pyrazol-1-yl]-N-hydroxy-2-methyl-2-(methylsulfonyl)butanamide], for which the MIC was 64 µg/mL (≈ 166 µM) in assay [1], 8 µg/mL (≈ 20.8 µM) in assay [2] (setting [6]) and more than 64 µg/mL in assay [5] (setting [8]). In addition, the IC50 in assay [3] (setting [7]) is 20.1 nM. The “KP-3700 (MIC)” value in assay [4] is more than 64.0 µg/mL.

`Cc1c(-c2ccccc2)nnn1CC[C@](C)(C(=O)NO)S(C)(=O)=O` [Example 15, (2R)—N-hydroxy-2-methyl-4-(5-methyl-4-phenyl-1H-1,2,3-triazol-1-yl)-2-(methylsulfonyl)butanamide]: the MIC in assay [1] is more than 64 µg/mL; in assay [2] (setting [6]), 32 µg/mL (≈ 90.8 µM); in assay [5] (setting [8]), more than 64 µg/mL. Further, in assay [3] (setting [7]), the IC50 is 21.3 nM. In assay [4], the “KP-3700 (MIC)” value is more than 64.0 µg/mL.

For the molecule `CC(CCn1cc(-c2ccc(C(F)(F)F)nc2)cn1)(C(=O)NO)S(C)(=O)=O` (centres unmarked) [Example 77, N-hydroxy-2-methyl-2-(methylsulfonyl)-4-{4-[6-(trifluoromethyl)pyridin-3-yl]-1H-pyrazol-1-yl}butanamide], the results for the MIC in assay [1], in assay [2] (setting [6]) and in assay [5] (setting [8]) were more than 64 µg/mL, 64 µg/mL (≈ 157 µM) and more than 64 µg/mL, respectively. Also, the IC50 in assay [3] (setting [7]) stood at 19.5 nM. For the same molecule, in assay [4], the “KP-3700 (MIC)” value is more than 64.0 µg/mL.

For `CC(CCn1cc(-c2cccc(-c3cc(N)[nH]n3)c2)cn1)(C(=O)NO)S(C)(=O)=O` (centres unmarked) [Example 85, 4-{4-[3-(5-amino-1H-pyrazol-3-yl)phenyl]-1H-pyrazol-1-yl}-N-hydroxy-2-methyl-2-(methylsulfonyl)butanamide], the MIC in assay [1], in assay [2] (setting [6]) and in assay [5] (setting [8]) was more than 64 µg/mL throughout. Moreover, the IC50 in assay [3] (setting [7]) is 58.9 nM. In assay [4], the “KP-3700 (MIC)” value was more than 64.0 µg/mL.

Regarding `C[C@@](CCn1cc(-c2cccc(Cl)c2Cl)nn1)(C(=O)NO)S(C)(=O)=O` [Example 19, (2R)-4-[4-(2,3-dichlorophenyl)-1H-1,2,3-triazol-1-yl]-N-hydroxy-2-methyl-2-(methylsulfonyl)butanamide], the values for the MIC in assay [1], in assay [2] (Pseudomonas aeruginosa) and in assay [5] (Acinetobacter baumannii) were 8 µg/mL (≈ 19.6 µM), 4 µg/mL (≈ 9.82 µM) and more than 64 µg/mL, respectively. In assay [3], the IC50 worked out at 1.95 nM. Besides, the “KP-3700 (MIC)” value in assay [4] stood at 16 µg/mL.

As to `C[C@@](CCn1cc(C2CCCCC2)cn1)(C(=O)NO)S(C)(=O)=O` [Example 2, (2R)-4-(4-cyclohexyl-1H-pyrazol-1-yl)-N-hydroxy-2-methyl-2-(methylsulfonyl)butanamide], the MIC is 32 µg/mL (≈ 93.2 µM) in assay [1], 1 µg/mL (≈ 2.91 µM) in assay [2] (setting [6]) and more than 64 µg/mL in assay [5] (setting [8]). The IC50 in assay [3] (setting [7]) is 0.752 nM. Moreover, the “KP-3700 (MIC)” value in assay [4] turned out to be 64 µg/mL.
